Data set [1] is described as follows: pKHB (hydrogen bond basicity of the heterocycle) was determined.
The nature of data set [2]: pKa was determined. The class given is physicochemical.
In data set [3] the target is T1, Somatostatin receptor type 4 (Homo sapiens, UniProt P31391). Nature of the data set: Tested for binding affinity at human Somatostatin receptor type 4 using ([3-125I-Tyr11)]-SRIF-14 as the radioligand.
For the next data set, the target named is Substance-P receptor (Homo sapiens, UniProt P25103). Nature of the data set: Binding affinity against Tachykinin receptor 1.
Data set [4] addresses T1, Somatostatin receptor type 4. Description: Inhibitory concentration required against human Somatostatin receptor type 4.
In data set [5] the target is Somatostatin receptor type 2 (Homo sapiens, UniProt P30874). Description: Inhibitory concentration required against human Somatostatin receptor type 2.

The record followed here is ChEMBL document CHEMBL1145032, “Effects of heterocyclic aromatic substituents on binding affinities at two distinct sites of somatostatin receptors. Correlation with the electrostatic potential of the substituents” (J Med Chem, 2003).

T1 sequence (P31391 whole entry): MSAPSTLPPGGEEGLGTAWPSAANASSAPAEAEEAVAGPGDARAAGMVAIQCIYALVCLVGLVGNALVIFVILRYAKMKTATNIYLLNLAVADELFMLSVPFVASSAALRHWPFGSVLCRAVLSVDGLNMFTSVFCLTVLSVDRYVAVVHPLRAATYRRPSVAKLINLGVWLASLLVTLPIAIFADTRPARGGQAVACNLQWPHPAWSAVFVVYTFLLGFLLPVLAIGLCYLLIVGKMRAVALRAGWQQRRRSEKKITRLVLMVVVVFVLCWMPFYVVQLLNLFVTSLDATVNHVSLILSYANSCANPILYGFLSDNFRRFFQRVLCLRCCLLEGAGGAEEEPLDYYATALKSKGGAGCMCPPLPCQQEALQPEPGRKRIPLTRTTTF
Sequence of Somatostatin receptor type 2 (P30874 whole entry): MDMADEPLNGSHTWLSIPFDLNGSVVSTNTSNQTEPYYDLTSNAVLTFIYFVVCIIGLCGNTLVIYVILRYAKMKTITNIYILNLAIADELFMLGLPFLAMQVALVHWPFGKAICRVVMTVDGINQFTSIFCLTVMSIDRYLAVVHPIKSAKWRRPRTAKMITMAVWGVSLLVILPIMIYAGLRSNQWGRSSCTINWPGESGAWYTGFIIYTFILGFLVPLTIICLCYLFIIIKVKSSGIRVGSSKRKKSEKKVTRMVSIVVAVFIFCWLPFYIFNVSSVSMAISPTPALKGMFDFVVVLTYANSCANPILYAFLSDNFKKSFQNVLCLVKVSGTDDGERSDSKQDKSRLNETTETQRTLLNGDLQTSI
Sequence of Substance-P receptor (P25103 whole entry): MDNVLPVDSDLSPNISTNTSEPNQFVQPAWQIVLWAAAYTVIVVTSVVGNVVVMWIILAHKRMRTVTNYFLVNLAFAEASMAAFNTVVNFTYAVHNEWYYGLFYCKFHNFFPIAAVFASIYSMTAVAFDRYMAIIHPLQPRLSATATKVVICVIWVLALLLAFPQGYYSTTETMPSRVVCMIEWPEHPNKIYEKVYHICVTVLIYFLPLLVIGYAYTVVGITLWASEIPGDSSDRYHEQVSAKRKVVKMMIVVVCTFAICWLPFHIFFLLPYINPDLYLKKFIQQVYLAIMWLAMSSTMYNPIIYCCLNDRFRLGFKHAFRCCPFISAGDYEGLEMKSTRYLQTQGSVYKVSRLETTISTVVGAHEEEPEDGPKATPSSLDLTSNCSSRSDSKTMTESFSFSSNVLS

`NCCCCCOC[C@H]1O[C@@H](OCCc2c[nH]c3ccccc23)[C@H](OCc2ccccc2)[C@@H](OCc2ccccc2)[C@@H]1OCc1cnccn1` gave a pKHB in data set [1] of 1.95. The pKa (commonly the negative logarithm of the acid dissociation constant) in data set [2] is 0.7. Moreover, in data set [3], the affinity corresponds to a Ki of 0.26 µM.
`NCCCCCOC[C@H]1O[C@@H](OCCc2c[nH]c3ccccc23)[C@H](OCc2ccccc2)[C@@H](OCc2ccccc2)[C@@H]1OCc1ccccc1`: the Ki (usually the dissociation constant of the complex between target and ligand, obtained from inhibition or displacement) in data set [3] is 1.65 µM; on Substance-P receptor, 0.15 µM.
With `NCCCCCOC[C@H]1O[C@@H](OCCc2c[nH]c3ccccc23)[C@H](OCc2ccccc2)[C@@H](OCc2ccccc2)[C@@H]1OCc1cccnc1`, the pKHB in data set [1] is 1.86. The compound further showed a pKa in data set [2] of 5.2. Also, the Ki in data set [3] was 0.36 µM.
`CC(=O)NCCCCCOC[C@H]1O[C@@H](OCCc2c[nH]c3ccccc23)[C@H](OCc2ccccc2)[C@@H](OCc2ccccc2)[C@@H]1O`: affinity on Substance-P receptor was put at a Ki of 0.027 µM.
In turn, `NCCCCCOC[C@H]1O[C@@H](OCCc2c[nH]c3ccccc23)[C@H](OCc2ccccc2)[C@@H](OCc2ccccc2)[C@@H]1OCc1ccccn1` showed a pKHB in data set [1] of 1.86. This compound registered a pKa in data set [2] of 5.2. This compound also registered a Ki in data set [3] of 0.89 µM.
Turning to `NCCCCCOC[C@H]1O[C@@H](OCCc2c[nH]c3ccccc23)[C@H](OCc2ccccc2)[C@@H](OCc2ccccc2)[C@@H]1OCc1ccc(Cl)nc1`, in data set [2], the pKa came out at 0.5. The same compound came in with a Ki in data set [3] of 1.2 µM.
`Cc1ccc(CO[C@H]2[C@H](OCc3ccccc3)[C@@H](OCc3ccccc3)[C@H](OCCc3c[nH]c4ccccc34)O[C@@H]2COCCCCCN)cn1` displayed a pKHB in data set [1] of 1.05. The compound further showed a pKa in data set [2] of 6.1. Moreover, the Ki in data set [3] stood at 1.26 µM.
In data set [1], `NCCCCCOC[C@H]1O[C@@H](OCCc2c[nH]c3ccccc23)[C@H](OCc2ccccc2)[C@@H](OCc2ccccc2)[C@@H]1OCc1ccc(F)nc1` had a pKHB of 0.95. This compound also gave a pKa in data set [2] of -0.4. In data set [3], this compound registered a Ki of 0.68 µM.
In data set [3], `NCCCCCOC[C@H]1O[C@@H](OCCc2c[nH]c3ccccc23)[C@H](OCc2cnc[nH]2)[C@@H](OCc2ccccc2)[C@@H]1OCc1cccnc1` gave a Ki of 0.053 µM. Moreover, the figures for the IC50 in data set [4] and in data set [5] were 0.053 µM and 2.25 µM, respectively.
In data set [1], `NCCCCCOC[C@H]1O[C@@H](OCCc2c[nH]c3ccccc23)[C@H](OCc2ccccc2)[C@@H](OCc2ccccc2)[C@@H]1OCc1ccncc1` registered a pKHB of 1.86. In data set [2], the pKa is 5.2. Further, the affinity in data set [3] corresponds to a Ki of 0.57 µM.
In the same order, the values of `NCCCCCOC[C@H]1O[C@@H](OCCc2c[nH]c3ccccc23)[C@H](OCc2ccccc2)[C@@H](OCc2ccccc2)[C@@H]1OCc1c[nH]cn1` are 2.03, 7.2 and 1.04 µM.
As to `NCCCCCOC[C@@H]1O[C@H](OCCc2c[nH]c3ccccc23)[C@H](OCc2cnc[nH]2)C(OCc2ccccc2)[C@H]1OCCc1cccnc1` (single isomer, unassigned; (+)), the IC50 (in general, the concentration needed to halve the response being measured) in data set [4] came out at 0.8 µM.
In data set [3], `NCCCCCOC[C@@H]1O[C@H](OCCc2c[nH]c3ccccc23)[C@H](OCc2cnc[nH]2)C(OCc2ccccc2)[C@H]1OCc1ccccc1` (single isomer, unassigned; (+)) returned a Ki of 0.1 µM. Further, the half-inhibitory concentration (IC50) was 0.1 µM in data set [4] and 0.8 µM in data set [5].
